Data on ten compounds can be found in paper PMC6696278 (International Journal of Molecular Sciences, 2019).

Common to all, as to format: binding
Test [1] concerns the target T1, human galectin-1 (Homo sapiens, UniProt P09382).
T1 construct: made in house
Briefly: competitive fluorescence polarization assay, galectin-1. To be noted: for Kd: Table 2, average and SEM of 4–8 single-triple point measurements, PBS. The source says: (§1) Human galectin-1 [25], galectin-2 [26], galectin-3 [27], galectin-4N [19], galectin-4C [19], galectin-8N [28], galectin-8C [28], galectin-9N [29], and galectin-9C [30], were expressed and purified as described earlier. Human galectin-7 was expressed using a pET3c plasmid in E. coli BL21-star. The plasmid containing expression optimized DNA encoding the full human galectin-7 sequence (NCBI Reference Sequence: NP_002298.1) was obtained from GenScript (Piscataway, NJ, USA). […] Lactose was removed by chromatography on a PD-10 column (Amersham Biosciences) with repeated ultrafiltration with Centriprep (Amicon).
(§2) Fluorescence polarization experiments were carried out either with a POLARStar plate reader and FLUOstar Galaxy software or with a PheraStarFS plate reader and PHERAstar Mars version 2.10 R3 software (BMG, Offenburg, Germany). The dissociation constant (Kd) values were determined in PBS as described earlier. Specific conditions for galectin-1, 2, 3, 4N, 4C, 8N, 8C, 9N, and 9C were kept as reported. Experiments were performed at room temperature with human galectin-7 at 5 µM and the fluorescent probe β-D-galactopyranosyl-(1–4)-2-acetamido-2-deoxy-β-d-glucopyranosyl-(1–3)-β-d-galactopyranosyl-(1–4)-(N1-fluorescein-5-yl-carbonylaminomethylcarbonyl)-β-D-glucopyranosylamine at 0.02 µM. All the compounds in Table 1 except 32 were dissolved in a neat DMSO at 100 mM and diluted in PBS to three to six different concentrations to be tested in duplicate.
(Polarisation of emitted light reports the rotation of a fluorescent probe.)

In test [2] the target is T2, human galectin-8N (N-terminal domain) (Homo sapiens, UniProt O00214).
T2 construct: 4N (N-terminal domain) 4C (C-terminal domain), 7, 8N, 8C, 9N, and 9C; made in house
T2 sequence (O00214 19-152 limits assumed): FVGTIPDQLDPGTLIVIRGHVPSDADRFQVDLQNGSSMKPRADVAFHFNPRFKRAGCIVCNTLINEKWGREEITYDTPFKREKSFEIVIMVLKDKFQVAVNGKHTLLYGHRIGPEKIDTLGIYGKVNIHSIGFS
The test can be described thus: competitive fluorescence polarization assay, galectin-8N. To be noted: Table 2, average and SEM, PBS.
Text: as §1, §2

Test [3] addresses T3, human galectin-4C (C-terminal domain) (Homo sapiens, UniProt P56470).
T3 construct: 4N (N-terminal domain) 4C (C-terminal domain); made in house
T3 sequence (P56470 194-323 limits assumed): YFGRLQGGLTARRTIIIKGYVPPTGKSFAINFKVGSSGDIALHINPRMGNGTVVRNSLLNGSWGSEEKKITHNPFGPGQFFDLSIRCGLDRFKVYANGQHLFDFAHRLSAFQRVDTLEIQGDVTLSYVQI
The test can be described thus: competitive fluorescence polarization assay, galectin-4C. To be noted: Table 2, average and SEM, PBS.
Text: as §1, §2

For test [4], the target named is T4, human galectin-4N (N-terminal domain) (Homo sapiens, UniProt P56470).
T4 construct: 4N (N-terminal domain) 4C (C-terminal domain); made in house
T4 sequence (P56470 19-150 limits assumed): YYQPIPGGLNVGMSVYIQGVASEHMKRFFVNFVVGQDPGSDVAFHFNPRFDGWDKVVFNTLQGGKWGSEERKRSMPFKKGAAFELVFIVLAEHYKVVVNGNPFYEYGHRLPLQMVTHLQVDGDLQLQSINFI
The test can be described thus: competitive fluorescence polarization assay, galectin-4N. To be noted: Table 2; N-terminal domain; average and SEM; PBS.
Text: (§3) Human galectin-1 [25], galectin-2 [26], galectin-3 [27], galectin-4N [19], galectin-4C [19], galectin-8N [28], galectin-8C [28], galectin-9N [29], and galectin-9C [30], were expressed and purified as described earlier. Human galectin-7 was expressed using a pET3c plasmid in E. coli BL21-star. The plasmid containing expression optimized DNA encoding the full human galectin-7 sequence (NCBI Reference Sequence: NP_002298.1) was obtained from GenScript (Piscataway, NJ, USA). Bacterial culture and induction, and galectin purification was essential as described for galectin-3 expressed with the same vector [27]; a typical yield was 1.5–2 mg/L culture. Lactose was removed by chromatography on a PD-10 column (Amersham Biosciences) with repeated ultrafiltration with Centriprep (Amicon).
as §2

Test [5] addresses T5, human galectin-9C (C-terminal domain) (Homo sapiens, UniProt O00182).
T5 construct: 4N (N-terminal domain) 4C (C-terminal domain), 7, 8N, 8C, 9N, and 9C; made in house
The test can be described thus: competitive fluorescence polarization assay, galectin-9C. To be noted: Table 2, average and SEM, PBS.
Text: as §1, §2

Test [6] addresses T6, human galectin-2 (Homo sapiens, UniProt P05162).
T6 construct: made in house
T6 sequence (P05162 1-132): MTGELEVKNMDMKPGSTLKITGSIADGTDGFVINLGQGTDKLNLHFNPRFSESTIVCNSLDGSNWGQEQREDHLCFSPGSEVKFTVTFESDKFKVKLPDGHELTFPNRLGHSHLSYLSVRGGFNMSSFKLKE
Briefly: competitive fluorescence polarization assay, galectin-2. To be noted: Table 2; average and SEM; PBS.
Text: as §3, §2

For test [7], the target named is T7, human galectin-9N (N-terminal domain) (Homo sapiens, UniProt O00182).
T7 construct: 4N (N-terminal domain) 4C (C-terminal domain), 7, 8N, 8C, 9N, and 9C; made in house
T7 sequence (O00182 17-148 limits assumed): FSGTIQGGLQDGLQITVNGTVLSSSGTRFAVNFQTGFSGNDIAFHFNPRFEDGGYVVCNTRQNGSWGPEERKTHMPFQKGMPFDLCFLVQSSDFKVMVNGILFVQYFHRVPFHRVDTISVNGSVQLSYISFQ
Briefly: competitive fluorescence polarization assay, galectin-9N. To be noted: Table 2, average and SEM, PBS.
Text: as §3, §2

In test [8] the target is T8, human galectin-7 (Homo sapiens, UniProt P47929).
T8 construct: made in house; host or cells: E. coli BL21-star, pET3c plasmid (DNA from GenScript)
T8 sequence (P47929 whole entry): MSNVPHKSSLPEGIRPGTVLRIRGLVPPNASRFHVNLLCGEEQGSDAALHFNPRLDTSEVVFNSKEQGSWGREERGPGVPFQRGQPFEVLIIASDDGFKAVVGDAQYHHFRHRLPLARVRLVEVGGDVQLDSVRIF
Briefly: competitive fluorescence polarization assay, galectin-7. To be noted: Table 2; average and SEM; PBS, room temperature, galectin-7 at 5 µM, probe 0.02 µM.
Text: as §3, §2

In test [9] the target is T9, human galectin-3 (Homo sapiens, UniProt P17931).
T9 construct: made in house; host or cells: vector pET3c (the same vector as galectin-7)
T9 sequence (P17931 whole entry): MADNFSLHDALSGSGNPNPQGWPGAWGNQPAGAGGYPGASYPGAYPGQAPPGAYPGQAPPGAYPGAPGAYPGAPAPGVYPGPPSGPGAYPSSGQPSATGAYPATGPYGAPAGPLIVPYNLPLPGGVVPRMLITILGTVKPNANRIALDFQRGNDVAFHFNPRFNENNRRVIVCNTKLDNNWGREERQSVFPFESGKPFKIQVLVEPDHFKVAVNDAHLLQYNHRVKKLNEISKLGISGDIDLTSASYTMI
Briefly: competitive fluorescence polarization assay, galectin-3. To be noted: Table 2; average and SEM; PBS.
Text: as §1, §2

For test [10], the target named is T10, human galectin-8C (C-terminal domain) (Homo sapiens, UniProt O00214).
T10 construct: 4N (N-terminal domain) 4C (C-terminal domain), 7, 8N, 8C, 9N, and 9C; made in house
T10 sequence (O00214 187-317 limits assumed): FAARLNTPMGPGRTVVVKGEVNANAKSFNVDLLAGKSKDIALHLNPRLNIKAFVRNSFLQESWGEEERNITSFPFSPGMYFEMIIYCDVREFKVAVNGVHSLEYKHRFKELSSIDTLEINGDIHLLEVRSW
Briefly: competitive fluorescence polarization assay, galectin-8C. To be noted: Table 2, average and SEM, PBS.
Text: as §1, §2

The structures appear in SMILES notation. A value given as a limit tells only on which side of the number the result lay.

T5 sequence (O00182 227-355 limits assumed): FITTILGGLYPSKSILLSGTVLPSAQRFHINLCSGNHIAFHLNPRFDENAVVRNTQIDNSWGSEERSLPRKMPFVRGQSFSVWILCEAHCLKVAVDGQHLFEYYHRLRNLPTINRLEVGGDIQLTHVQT
T1 sequence (P09382 whole entry): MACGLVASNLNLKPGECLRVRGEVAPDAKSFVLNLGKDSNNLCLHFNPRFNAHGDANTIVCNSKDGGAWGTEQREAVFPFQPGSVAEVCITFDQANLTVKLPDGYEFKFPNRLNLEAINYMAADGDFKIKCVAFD

A word on the Kd: it is the constant that tells how readily two partners part at equilibrium. Low readings indicate higher affinity, high ones lower affinity. Take `CO[C@@H]1O[C@H](CO)[C@H](O)[C@@H](CNC(C)=O)[C@H]1O` [Compound 7b, Methyl 3-Deoxy-3-C-Acetamidomethyl-β-D-Gulopyranoside]: the Kd in test [1] was 1.5 ± 0.08 mM; in [2] it was more than 4 mM; in test [3], more than 4 mM; in [4] it was 1.9 ± 0.05 mM; in [5], more than 4 mM; in [6], more than 4 mM. Also, the Kd in test [7] is more than 4 mM; in test [8], more than 4 mM; in [9] it was more than 4 mM; in [10] it was 2.7 ± 0.5 mM.
With `CO[C@@H]1O[C@H](CO)[C@H](O)[C@H](CNC(=O)c2ccccc2F)[C@H]1O` [Compound 7c, Methyl 3-Deoxy-3-C-(2-Fluorobenzamidomethyl)-β-D-Galactopyranoside], the equilibrium dissociation constant (Kd) in test [1] was 1.9 ± 0.04 mM; in test [2], more than 4 mM; in test [3] it was more than 4 mM; in test [4], 2.2 ± 0.16 mM; in test [5], more than 4 mM; in test [6], more than 4 mM. Also, the Kd in [7], in test [8], in test [9] and in [10] was more than 4 mM each time.
Turning to `CO[C@@H]1O[C@H](CO)[C@H](O)[C@H](CNC(=O)c2cccc(F)c2)[C@H]1O` [Compound 7d, Methyl 3-Deoxy-3-C-(3-Fluorobenzamidomethyl)-β-D-Galactopyranoside], the equilibrium dissociation constant (Kd) was 1.9 ± 0.4 mM in test [1]; more than 4 mM in test [2]; more than 4 mM in test [3]; more than 4 mM in test [4]; more than 4 mM in test [5]; more than 4 mM in [6]. Also, the dissociation constant (Kd) in test [7], in test [8], in test [9] and in test [10] was more than 4 mM in each case.
Consider `CO[C@@H]1O[C@H](CO)[C@H](O)[C@H](CNC(=O)c2ccc(F)cc2)[C@H]1O` [Compound 7e, Methyl 3-Deoxy-3-C-(4-Fluorobenzamidomethyl)-β-D-Galactopyranoside], for which the Kd in [1] is 1.7 ± 0.06 mM; in test [2] it was more than 4 mM; in test [3], more than 4 mM; in [4], 1.7 ± 0.07 mM; in [5], more than 4 mM; in test [6], more than 4 mM. Further, the Kd in test [7] is more than 4 mM; in test [8] it was more than 4 mM; in test [9], 1.6 ± 0.03 mM; in test [10] it was more than 4 mM.
Take `CO[C@@H]1O[C@H](CO)[C@H](O)[C@H](CNC(=O)c2cc(F)c(F)c(F)c2)[C@H]1O` [Compound 7f, Methyl 3-Deoxy-3-C-(3,4,5-Trifluorobenzamidomethyl)-β-D-Galactopyranoside]: the Kd in test [1] was 2.5 ± 0.4 mM; in test [2], more than 4 mM; in [3] it was more than 4 mM; in [4], more than 4 mM; in [5], more than 4 mM; in test [6], more than 4 mM. For the same compound, the equilibrium dissociation constant (Kd) in test [7], in [8], in [9] and in test [10] was more than 4 mM throughout.
Regarding `CO[C@@H]1O[C@H](CO)[C@H](O)[C@H](CNC(=O)c2c(F)c(F)c(F)c(F)c2F)[C@H]1O` [Compound 7g, Methyl 3-Deoxy-3-C-(2,3,4,5,6-Pentafluorobenzamidomethyl)-β-D-Galactopyranoside], the equilibrium dissociation constant (Kd) in [1] was 0.7 ± 0.005 mM; in test [2] it was more than 4 mM; in test [3] it was more than 4 mM; in [4] it was more than 4 mM; in test [5] it was more than 4 mM; in [6], more than 4 mM. Besides, the Kd in test [7], in [8], in test [9] and in test [10] was more than 4 mM in each case. Besides, the “fold better affinity for galectin-1 than reference methyl β-D-galactopyranoside 32” value in test [1] (ratio of Kd values) turned out to be 14 fold.
Take `COc1cccc(C(=O)NC[C@H]2[C@@H](O)[C@@H](CO)O[C@@H](OC)[C@@H]2O)c1` [Compound 7h, Methyl 3-Deoxy-3-C-(3-Methoxybenzamidomethyl)-β-D-Galactopyranoside]: the Kd in test [1] was 3.2 ± 0.5 mM; in test [2], more than 4 mM; in test [3] it was more than 4 mM; in test [4] it was more than 4 mM; in test [5] it was more than 4 mM; in test [6], more than 4 mM. Further, the dissociation constant (Kd) in test [7], in test [8], in test [9] and in test [10] was more than 4 mM each time.
For the compound `CO[C@@H]1O[C@H](CO)[C@H](O)[C@H](CNC(=O)c2ccc(C)cc2)[C@H]1O` [Compound 7i, Methyl 3-Deoxy-3-C-(p-Toluamidomethyl)-β-D-Galactopyranoside], the equilibrium dissociation constant (Kd) in test [1] was 2.3 ± 0.4 mM; in test [2], more than 4 mM; in test [3] it was more than 4 mM; in test [4], more than 4 mM; in [5], more than 4 mM; in [6], more than 4 mM. For the same compound, the dissociation constant Kd in test [7], in [8], in test [9] and in [10] was more than 4 mM each time.
In the case of `COc1cc(OC)cc(C(=O)NC[C@H]2[C@@H](O)[C@@H](CO)O[C@@H](OC)[C@@H]2O)c1` [Compound 7j, Methyl 3-Deoxy-3-C-(3,5-Dimethoxybenzamidomethyl)-β-D-Galactopyranoside], the Kd was 1.8 ± 0.04 mM in test [1]; more than 4 mM in test [2]; more than 4 mM in test [3]; 2 ± 0.4 mM in test [4]; more than 4 mM in test [5]; more than 4 mM in test [6]. In addition, the Kd in test [7] was more than 4 mM; in test [8], more than 4 mM; in test [9] it was more than 4 mM; in test [10], 2.6 ± 0.6 mM.
Regarding `CO[C@@H]1O[C@H](CO)[C@H](O)[C@H](CNC(=O)c2cccc(C(F)(F)F)c2)[C@H]1O` [Compound 7k, Methyl 3-Deoxy-3-C-(3-Trifluoromethylbenzamidomethyl)-β-D-Galactopyranoside], the Kd in test [1] is 1.8 ± 0.07 mM; in [2] it was more than 4 mM; in test [3], more than 4 mM; in [4], 1.9 ± 0.1 mM; in [5], more than 4 mM; in [6], more than 4 mM. Besides, the Kd in test [7], in [8], in [9] and in test [10] was more than 4 mM each time.
